Experimental data: patent US20250183494A1, “Standardized Bioflavonoid Composition for Regulation of Homeostasis of Host Defense Mechanism” (priority 2021, published 2025)
Where “and” joins values, the source holds several entries; their conditions need not be identical. Equal values may be shown once.

How the values were obtained:
LPS-induced sepsis = LPS-induced sepsis model, composition vs constituents, Colby synergy; format: in vivo, CD-1 mice
Experimental: On the 8th day, mice were injected intraperitoneally (i.p.) with 25 mg/kg LPS dissolved in PBS at 10 mL/kg. Mice in the UP894-II-treated group received a daily dose of UP894-II at 250 mg/kg. All mice continued to receive the treatment daily for the duration of study, which was completed on the 6th day post LPS injection. Following a median lethal dose of LPS (25 mg/kg) by i.p. administration, animals are expected to develop sepsis within a few hours. If untreated, mice would start to die within 24 hours. Animals were observed hourly. In the current study, we monitored the mice for 6 days after LPS injection.
For the blending of these plant extracts to have unexpected synergy, the observed inhibition needs to be greater than the calculated value.
The LPS-induced survival study was utilized to evaluate possible synergy or unexpected effects of extracts from Scutellaria and Acacia, when formulated together in a specific ratio, using Colby's method.

[1] = test system: LPS-induced endotoxemia and sepsis; experiment: LPS-induced sepsis model, survival (UP446 study); format: in vivo, CD-1 mice
Source text: This model used survival rate of animals as the end point measurement (Wang et al., 1999). Lipopolysaccharide (LPS) is an integral component of the outer membrane of gram-negative bacteria and a major contributing factor in the initiation of a generalized inflammatory process that may lead to endotoxin shock. It is a state mediated principally by macrophages/monocytes and is attributed to excessive production of several early phase cytokines such as TNF-α, IL-1, IL-6 and gamma interferon (IFN-γ) as well as a late-stage mediator, HMGB1. Following a median lethal dose of LPS (25 mg/kg) administration dissolved in phosphate-buffered saline (PBS; Lifeline, Lot #07641), animals develop endotoxemia and HMGB1 would be detected in the serum at 8 hours and reach to a peak and plateau levels from 16 to 32 hours after LPS. If untreated, mice would start to die within 24 hours. In the current study, we monitored the mice for 4 days after LPS injection. […] The following groups were included in the study:
In this model, mice were pretreated with bioflavonoid composition—UP446, illustrated in the Example 4, for a week (7 days) before lethal dose intraperitoneal injection of LPS (E. coli, 055:B5; Sigma, St. Louis, MO; Lot #081275) at 25 mg/kg with a 10 mL/kg PBS volume. Animals were observed hourly. Given the fact that sodium butyrate improved LPS-induced injury in mice through suppression of HMGB1 release, we chose this compound as a positive control for our study (Li et al., 2018).

[2] = test system: LPS-induced acute lung injury; experiment: LPS-induced acute lung injury, lung histopathology (H&E); format: in vivo, Sprague Dawley rats; conditions: UP446 high dose 250 mg/kg, Sodium Butyrate 500 mg/kg
Experimental: The severity of lung damage as a result of intratracheal LPS was assessed using HandE-stained lung tissue. The left lobe of the lung was used for the histopathology analysis.

TNF-α = experiment: LPS-induced acute lung injury, serum TNF-α ELISA; format: in vivo, Sprague Dawley rats; conditions: UP446 250 mg/kg, SB 500 mg/kg
Experimental: The presence of TNF-α in undiluted rat serum was measured using the rat TNF-α Quantikine ELISA kit from RandD Systems (product #: RTA00) as follows: undiluted serum was added to a microplate coated with TNF-α antibody. […] The washing was repeated, and enzyme substrate was added to the plate.

IL-1β = experiment: LPS-induced acute lung injury, serum IL-1β ELISA; format: in vivo, Sprague Dawley rats; conditions: UP446 250 mg/kg, SB 500 mg/kg
Experimental: The presence of IL-1β in undiluted rat serum was measured using the Rat IL-1β Quantikine ELISA kit from RandD Systems (product #: RLB00) as follows: undiluted serum was added to a microplate coated with IL-1β antibody. […] The washing was repeated, and enzyme substrate was added to the plate.

[3] = SB 500, UP894-II 250, RM405 200, RM406 50 mg/kg
[4] = SB 500, UP894-II 250, RM405 200, RM406 50 mg/kg, listed as SB
[5] = per interval, SB 500, UP894-II 250, RM405 200, RM406 50 mg/kg oral, N=13
[6] = cumulative, LPS 25 mg/kg i.p., UP446 250, Sodium Butyrate 500 mg/kg oral, N=8

Compound: CCCC(=O)[O-].[Na+] [Sodium Butyrate]
- Mortality rate, 0 hr (LPS-induced sepsis; [3]): 0.00%
- Mortality rate, 24 hr post LPS (LPS-induced sepsis; [3]): 15.38%
- Mortality rate, 36 hr post LPS (LPS-induced sepsis; [3]): 46.15%
- Mortality rate, 48 hr post LPS (LPS-induced sepsis; [3]): 53.85%
- Mortality rate, 60 hr post LPS (LPS-induced sepsis; [3]): 61.54%
- Mortality rate, 72 hr post LPS (LPS-induced sepsis; [3]): 61.54%
- Mortality rate, 96 hr post LPS (LPS-induced sepsis; [3]): 69.23%
- Mortality rate, 120 hr post LPS (LPS-induced sepsis; [3]): 69.23%
- Mortality rate, 144 hr post LPS (end of observation) (LPS-induced sepsis; [3]): 69.23%
- Survival rate, 0 hr (LPS-induced sepsis; [3]): 100.0%
- Survival rate, 24 hr post LPS (LPS-induced sepsis; [3]): 84.6%
- Survival rate, 48 hr post LPS (LPS-induced sepsis; [3]): 46.2%
- Survival rate, 60 hr post LPS (LPS-induced sepsis; [3]): 38.5%
- Survival rate, 96 hr post LPS (LPS-induced sepsis; [3]): 30.8%
- Survival rate, 120 hr post LPS (LPS-induced sepsis; [3]): 30.8%
- Survival rate, 144 hr post LPS (end of observation) (LPS-induced sepsis; [3]): 30.8%
- Survival rate, 36 hr post LPS (LPS-induced sepsis; [4]): 53.9% and 53.8%
- Survival rate, 72 hr post LPS (LPS-induced sepsis; [4]): 38.5%
- Number of deceased animals post LPS, 24 hours (LPS-induced sepsis; [5]): 2
- Number of deceased animals post LPS, 36 hours (LPS-induced sepsis; [5]): 4
- Number of deceased animals post LPS, 48 hours (LPS-induced sepsis; [5]): 1
- Number of deceased animals post LPS, 60 hours (LPS-induced sepsis; [5]): 1
- Number of deceased animals post LPS, 72 hours (LPS-induced sepsis; [5]): 0
- Number of deceased animals post LPS, 96 hours (LPS-induced sepsis; [5]): 1
- Number of deceased animals post LPS, 120 hours (LPS-induced sepsis; [5]): 0
- Number of deceased animals post LPS, 144 hours (LPS-induced sepsis; [5]): 0
- Survived (LPS-induced sepsis; through 144 hours post LPS, N=13): 4
- Survival rate ([1]; 48 hours after LPS injection, UP446 250, SB 500 mg/kg): half of the animals were deceased
- # of Death after LPS, 24 hr [1, 6]: 2
- # of Death after LPS, 32 hr [1, 6]: 3
- # of Death after LPS, 34 hr [1, 6]: 3
- # of Death after LPS, 48 hr [1, 6]: 4
- # of Death after LPS, 58 hr [1, 6]: 4
- # of Death after LPS, 72 hr [1, 6]: 4
- # of Death after LPS, 82 hr [1, 6]: 4
- Infiltration of PMN cell, score 0-4 [2]: 2.75 ± 0.78
- Overall Lung Damage Severity, score 0-4 [2]: 3.05 ± 0.42
- Pulmonary Edema, score 0-4 [2]: 2.35 ± 0.95
- Reduction in serum TNF-α level vs vehicle control (TNF-α): 67.9%
- Reduction in serum IL-1β level vs vehicle (IL-1β): 65.3%
